Converted amounts (≈) assume the structure as drawn.
Tests used:
Assay type in all cases: functional
[1] = test system: Mycolicibacterium smegmatis; assay: Antimycobacterial activity against Mycobacterium smegmatis MC2 155 under hypoxic condition after 96 hrs; conditions: str. MC2 155, 96 h
[2] = test system: Mycolicibacterium smegmatis; assay: Antimycobacterial activity against Mycobacterium smegmatis MC2 155 under aerobic condition after 48 hrs by MTT assay; conditions: str. MC2 155, 48 h
[3] = test system: Mycolicibacterium smegmatis; assay: Selectivity ratio of MIC for Mycobacterium smegmatis ICHO1018 overexpressing KasB to MIC for wild-type Mycobacterium smegmatis MC2 155
[4] = test system: Mycolicibacterium smegmatis; assay: Antimycobacterial activity against Mycobacterium smegmatis ICHO1019 overexpressing FabH
[5] = test system: Mycolicibacterium smegmatis; assay: Antimycobacterial activity against Mycobacterium smegmatis ICHO1018 overexpressing KasB
[6] = test system: Mycolicibacterium smegmatis; assay: Antimycobacterial activity against Mycobacterium smegmatis ICHO1017 overexpressing KasA
[7] = test system: Mycolicibacterium smegmatis; assay: Antimycobacterial activity against Mycobacterium smegmatis ICHO1001 harboring pMV261
[8] = test system: Mycolicibacterium smegmatis; assay: Antimycobacterial activity against wild-type Mycobacterium smegmatis MC2 155; conditions: str. MC2 155
[9] = test system: Mycobacterium tuberculosis; assay: Ratio of MBC99.9 to MIC for Mycobacterium tuberculosis LV54
[10] = test system: Mycobacterium tuberculosis; assay: Ratio of MBC99.9 to MIC for Mycobacterium tuberculosis H37Rv ATCC 27294
[11] = test system: Mycobacterium tuberculosis; assay: Antimycobacterial activity against Mycobacterium tuberculosis LV54 by microbroth dilution method
[12] = test system: Mycobacterium tuberculosis; assay: Antimycobacterial activity against Mycobacterium tuberculosis H37Rv ATCC 27294 by microbroth dilution method

| SMILES | MIC [1] [µg/mL] | MIC [2] [µg/mL] | Ratio [3] | MIC [4] [µg/mL] | MIC [5] [µg/mL] | MIC [6] [µg/mL] | MIC [7] [µg/mL] | MIC [8] [µg/mL] | Ratio [9] | Ratio [10] | MIC [11] [µg/mL] | MIC [12] [µg/mL] |
| --- | --- | --- | --- | --- | --- | --- | --- | --- | --- | --- | --- | --- |
| NNC(=O)c1ccncc1 [ISONIAZID] | 25 (≈ 182 µM) | 2.5 (≈ 18.2 µM) |  |  |  |  |  |  |  |  |  |  |
| C=C1C[C@@]23C=CC(=O)[C@@](C)(CCC(=O)Nc4c(O)ccc(C(=O)O)c4O)[C@@H]2C[C@@H]1CC3 (racemic) [PLATENCIN] | 0.3 (≈ 0.705 µM) | 0.5 (≈ 1.18 µM) | >17 | 1 (≈ 2.35 µM) | > 8.5 | 1 (≈ 2.35 µM) | 0.5 (≈ 1.18 µM) | 0.5 (≈ 1.18 µM) | >64 | >64 | 1 (≈ 2.35 µM) | 2 (≈ 4.7 µM) |

Reference: ChEMBL document CHEMBL3217504, “Potent growth inhibitory activity of ()-platencin towards multi-drug-resistant and extensively drug-resistant Mycobacterium tuberculosis” (2013)
